According to patent publication US20100092539A1, “Fluorinated GHRH Antagonists” (priority 2008, published 2010):

Tested on: PC-3 human hormone-independent prostate cancer
Test: Effect of treatment with GH-RH antagonists on PC-3 human prostate cancer xenografts in nude mice
Type: in vivo
Conditions: PC-3 xenografts s.c. in male nude mice, 2 ug/day s.c., single daily injections for 28
Method: Male nude mice were implanted s.c. with 3 mm3 pieces of PC-3 human hormone-independent prostate cancer tissue on both flanks. When tumors reached a volume of approximately 50 mm3, the mice were divided into 14 experimental groups with 8 to 10 animals in each group and received single daily injections for 28 as follows: 1. Control (vehicle solution); 2. P-12211 (2 μg/day s.c.); 3. P-12307 (2 μg/day s.c.); 4. P-12317 (2 μg/day s.c.); 5. P-12408 (2 μg/day s.c.); 6. P-12409 (2 μg/day s.c.); 7. P-12457 (2 μg/day s.c.); 8. P-12473 (2 μg/day s.c.); 9. P-12479 (2 μg/day s.c.); 10. P-12600 (2 μg/day s.c.); 11. P-12601 (2 μg/day s.c.); 12. P-12602 (2 μg/day s.c.); 13. P-12603 (2 μg/day s.c.); and 14. P-12610 (2 μg/day s.c.).
Effect of Treatment with GH-RH Antagonists on PC-3 Human Prostate Cancer Xenografts in Nude Mice

## [PhAc^0-Tyr^1, D-Arg^2, Cpa^6, Ala^8, Har^9, Fpa5^10, His^11, Orn^12, Abu^15, His^20, Orn^21, Nle^27, D-Arg^28, Har^29, Ada^30]hGH-RH(1-30)NH2 [Peptide P-12610]
Control 2137.62
  Tumor Growth after 4 weeks (%): 474.98%
Versus control
  Tumor growth inhibition after 4 weeks (%): 77.78%
